Patent publication US9248163B2, “Insulin-like growth factor binding protein 7 for treatment of cancer” (University of Massachusetts, priority 2007, dated 2016)

Columns and labels:
[1] = system: NCI 60 panel of human cancer cell lines; experiment: Growth inhibition of the NCI 60 panel cell lines by MEK inhibitor; format: cell-based
Procedure: The growth dependence of the above cell lines on the Ras-BRAF-MEK-Erk signaling pathway was also determined. 1.5×10^5 cells of each cell line were treated with 20 μM of the MEK inhibitor U0216 (Cell Signaling) for 24 hours, and growth of the cell lines was determined. U0216 inhibited growth in 11/11 (100%) of the cell lines that contained a BRAF mutation and 11/13 (84.6) of the cell lines that contained a RAS mutation. The one cell line that contained both a BRAF and a RAS mutation was susceptible to growth inhibition by U0216.

SK-MEL-28 cells = experiment: Immunoblot analysis of SMARCB1, BNIP3L and activated caspase 3; format: cell-based, human; details: 24 hours, unlike rIGFBP7
Procedure: (§1) To prepare cell extracts, cells were lysed in Laemmli buffer; for phospho-proteins, cells were lysed in the presence of a phosphatase inhibitor cocktail (Sigma). To prepare conditioned media, cells were grown in Opti-MEM™ (Invitrogen) for 24 hours, and media was harvested and concentrated using Centricon™ plus 20 tubes (Millipore). Conditioned media was normalized to cell number prior to loading the gel. For the experiments shown in FIGS. 3D and 4C, rIGFBP7 was added to the culture medium at a concentration of 10 μg/ml. For the MEK/RAF inhibitor experiment of FIG. 4D, SK-MEL-28 cells were treated with 2 μg/ml or 10 μg/ml rIGFBP7, 20 μM or 40 μM of the MEK inhibitor PD98054 (Calbiochem), or 5 nM or 10 nM the RAF inhibitor GW5074 (Sigma) for 24 hours prior to harvesting cells. Proteins were resolved by SDS-PAGE and transferred to nitrocellulose. Blots were probed with the following antibodies: α-p16 (Abcam), α-acetylated H3K9 (Upstate), α-IGFBP7 (Santa Cruz), α-SMARCB1 (Abnova), α-BNIP3L (Proscience), α-BRAFV600E (Santa Cruz), α-cleaved caspase-3 p11 (Santa Cruz), α-β-actin (Sigma), α-phospho-ERK (Cell Signaling) or α-ERK (Cell Signaling).

[2] = system: BRAF-MEK-ERK signaling in SK-MEL-28 cells; experiment: Immunoblot analysis of BRAF-MEK-ERK signaling (phospho-ERK, activated MEK1/2, RKIP); format: cell-based, human; details: SK-MEL-28 cells, 24 hours; PD98054 20 or 40 μM, GW5074 5 or 10 nM
Procedure: as §1
To test this idea, rIGFBP7 was added to BRAFV600E-positive SK-MEL-28 melanoma cells, and the levels of total and activated ERK (phospho-ERK) were analyzed.

[3] = system: IGFBP7 expression in melanoma cell lines; experiment: IGFBP7 mRNA (qRT-PCR) in melanoma cell lines after 5-aza treatment; format: cell-based, human; details: 10 μM, 48 hours
Procedure: Total RNA was isolated using TRIZOLTM (Invitrogen) 7 days after retroviral transduction and puromycin selection. Reverse transcription was performed using SuperScriptTM II Reverse Transcriptase (Invitrogen) as per the manufacturer's instructions, followed by quantitative real-time PCR using Platinum SYBRTM Green qPCR SuperMix-UDG with Rox (Invitrogen). Bisulfite modification was carried out essentially as described (Frommer et al., 1992, Proc. Natl. Acad. Sci. USA, 89:1827-31), except that hydroquinone was used at a concentration of 125 mM during bisulfite treatment (carried out in the dark) and DNA was desalted on […] columns (Qiagen) after the bisulfite reaction. Six clones were sequenced for each cell line or human tissue sample. For 5-aza-2'-deoxycytidine (5-aza) treatment, melanoma cell lines were treated with 10 μM 5-aza (Calbiochem) for 48 hours.

N#CC(=C(/N)Sc1ccccc1N)/C(C#N)=C(/N)Sc1ccccc1N [U0216]
cell lines in which growth was inhibited ([1]; cell lines that contained a BRAF mutation (11/11), 20 μM, 24 hours): 100% | cell lines in which growth was inhibited ([1]; cell lines that contained a RAS mutation (11/13), 20 μM, 24 hours): 84.6 | cell lines susceptible to growth inhibition ([1]; cell lines without a BRAF or RAS mutation, 20 μM, 24 hours): 0/34 | susceptibility to growth inhibition ([1]; one cell line with both a BRAF and a RAS mutation): susceptible

O=C1Nc2ccc(I)cc2/C1=C/c1cc(Br)c(O)c(Br)c1 [RAF inhibitor, reference compound]
BNIP3L levels and induction of apoptosis (SK-MEL-28 cells): did not increase BINP3L levels or efficiently induce apoptosis | BRAF-MEK-ERK signaling [2]: blocked BRAF-MEK-ERK signaling

Nc1ncn([C@H]2C[C@H](O)[C@@H](CO)O2)c(=O)n1 [5-aza-2′-deoxycytidine]
IGFBP7 expression ([3]; BRAF/RAS-wild type cell lines): no effect | IGFBP7 expression ([3]; BRAFV600E- and NRASQ61R-positive cell lines): restored IGFBP7 expression
